Experimental data taken from patent US20250282754A1, “BICYCLIC COMPOUNDS AND THEIR USE AS PEST CONTROL AGENTS” (Pl Industries Ltd., priority 2022, published 2025).

Experiments:
[1] = system: Bemisia tabaci; test: Bemisia tabaci leaf dip test (brinjal leaves, whitefly adults); type: in vivo; conditions: foliar, dead and moribund whitefly adults 72 h after release, compared to untreated controls, read-out: percent mortality
Description: The leaf dip method was used for testing, wherein the required quantity of the compound was weighed and dissolved in a tube containing a solvent solution. The tube was put on a vortex at 2000 rpm for proper mixing and then diluted with a 0.01% Triton-X solution to the desired test concentration. Brinjal leaves were dipped in the compound solution for 10 seconds; shade dried for 20 min and then placed, with the abaxial side of the leaf up, on 4 ml of a solidified 1% agar-agar solution in respective container caps. Known numbers of freshly emerged whitefly adults were collected, using a modified aspirator, and released into a perforated container in which the cap containing the treated leaf was placed. The containers were kept in a plant growth chamber at a temperature of 25° C. and relative humidity of 70%. Observations on dead, moribund and alive adults were recorded 72 h after the release. Percent mortality was calculated by combining dead and moribund adults and comparing the result to the one of the untreated controls. The compounds 1 9 11 18 25 28 29 30 31

[2] = system: Nilaparvata lugens; test: Nilaparvata lugens seedling dip test (paddy seedlings, third instar nymphs); type: in vivo; conditions: dead and moribund third instar nymphs 72 h after release, compared to untreated controls, read-out: percent mortality
Description: The seedling dip method was used for testing, wherein the required quantity of the compound was weighed and dissolved in a tube containing a solvent solution. The tube was put on a vortex at 2000 rpm for proper mixing and then diluted with a 0.01% Triton-X solution to the desired test concentration. Paddy seedlings were dipped in the compound solution for 10 seconds, shade dried for 20 min and then the seedlings were placed in glass test tubes with the roots kept in water. 15 third instar nymphs of Nilaparvata lugens were released into each test tube and the tubes were kept in a plant growth chamber at a temperature of 25° C. and relative humidity of 75%. Observations on dead, moribund and alive nymphs were recorded 72 h after the release. Percent mortality was calculated by combining dead and moribund nymphs and comparing the result to the one of the untreated controls. The compounds

SMILES	mortality at 300 ppm [1]	mortality at 300 ppm [2]
CCS(=O)(=Nc1ccc(F)c2nn(-c3cccnc3)cc12)C(C)C (stereo not drawn) [Compound 108]	≥ 70%	
Cc1ccc(S(C)(=O)=Nc2ccc3nn(-c4cncc(F)c4)cc3c2)cc1 (stereo not drawn) [Compound 51]		≥ 70%
N=S(=O)(c1ccc2nn(-c3cccnc3)cc2c1)C1CCC1 (stereo not drawn) [Compound 554, cyclobutyl(imino)(2-(pyridin-3-yl)-2H-indazol-5-yl)-λ^6-sulfanone]	≥ 70%	
CCN=S(=O)(CC1CCC1)c1ccc2nn(-c3cncc(F)c3)cc2c1 (stereo not drawn) [Compound 471, (cyclobutylmethyl)(ethylimino)(2-(5-fluoropyridin-3-yl)-2H-indazol-5-yl)-λ^6-sulfanone]		≥ 70%
CCS(C)(=O)=Nc1ccc2nn(-c3cncc(F)c3)cc2c1 (stereo not drawn) [Compound 5]		≥ 70%
CCCS(=O)(CCC)=Nc1cccc2nn(-c3cncc(F)c3)cc12 [Compound 77]	≥ 70%	
CCCS(=O)(CCC)=Nc1cnc2nn(-c3cncnc3)cc2c1 [Compound 184]	≥ 70%	
CCCCS(=O)(CC)=Nc1ccc2nn(-c3cccnc3)cc2n1 (stereo not drawn) [Compound 214]	≥ 70%	
CCS(=O)(=NC(=O)c1ccc2nn(-c3cccnc3)cc2c1)C(C)C (stereo not drawn) [Compound 105, N-(ethyl(isopropyl)(oxo)-λ^6-sulfaneylidene)-2-(pyridin-3-yl)-2H-indazole-5-carboxamide]		≥ 70%
CC(=O)N=S(=O)(c1cnc2nn(-c3cncc(F)c3)cc2c1)C(C)C (stereo not drawn) [Compound 402]		≥ 70%
N=S(=O)(CC1CCC1)c1ccc2nn(-c3cncnc3)cc2c1 (stereo not drawn) [Compound 465, (cyclobutylmethyl)(imino)(2-(pyrimidin-5-yl)-2H-indazol-5-yl)-λ^6-sulfanone]	≥ 70%	
CCOc1nn(-c2cccc3nn(-c4cccnc4)cc23)c(=O)n1Cc1ccc(OC(F)(F)F)cc1 [Compound 331, 5-ethoxy-2-(2-(pyridin-3-yl)-2H-indazol-4-yl)-4-(4-(trifluoromethoxy)benzyl)-2,4-dihydro-3H-1,2,4-triazol-3-one]		≥ 70%
COc1ccc(S(=O)(CCC(F)(F)F)=Nc2ccc3nn(-c4cncc(F)c4)cc3c2)cc1 (stereo not drawn) [Compound 66]	≥ 70%	
CC(C)S(C)(=O)=Nc1cccc2nn(-c3cccnc3)cc12 (stereo not drawn) [Compound 74]	≥ 70%	
O=S(CCC(F)(F)F)(=Nc1ccc2nn(-c3cncc(F)c3)cc2c1)c1ccccc1 (stereo not drawn) [Compound 65]	≥ 70%	
CC(=O)N=S(=O)(CC1CCC1)c1ccc2nn(-c3cncnc3)cc2c1 (stereo not drawn) [Compound 467]	≥ 70%	
COc1nn(-c2ccc3nn(-c4cccnc4)cc3c2)c(=O)n1Cc1ccc(Cl)cc1Cl [Compound 369, 4-(2,4-dichlorobenzyl)-5-methoxy-2-(2-(pyridin-3-yl)-2H-indazol-5-yl)-2,4-dihydro-3H-1,2,4-triazol-3-one]	≥ 70%	
CC(C)S(=O)(=Nc1ccc2nn(-c3cncnc3)cc2c1)c1ccc(F)cc1 (stereo not drawn) [Compound 18]	≥ 70%	
CC(C)S(=O)(=Nc1ccc2nn(-c3cncnc3)cc2c1)C(C)C [Compound 31]	≥ 70%	

SMILES	mortality at 300 ppm [1]	mortality at 300 ppm [2]
CC(C)CS(=O)(CC(C)C)=Nc1ccc2nn(-c3cccnc3)cc2c1 [Compound 79]	≥ 70%	
CCS(C)(=O)=Nc1ccc(F)c2nn(-c3cccnc3)cc12 (stereo not drawn) [Compound 109]	≥ 70%	
CC(C)S(=O)(CCC(F)(F)F)=Nc1ccc2nn(-c3cncnc3)cc2c1 (stereo not drawn) [Compound 101, isopropyl((2-(pyrimidin-5-yl)-2H-indazol-5-yl)imino)(3,3,3-trifluoropropyl)-λ^6-sulfanone]	≥ 70%	
CCCS(=O)(CCC)=Nc1cc2cn(-c3cncnc3)nc2cn1 [Compound 278]	≥ 70%	
CCS(=O)(=Nc1ccc2nn(-c3cncnc3)cc2c1)c1ccccc1 (stereo not drawn) [Compound 34]	≥ 70%	
CS(=O)(=Nc1ccc2nn(-c3cncnc3)cc2n1)C1CCCCC1 (stereo not drawn) [Compound 223]	≥ 70%	
CCN(C)S(=O)(=Nc1ccc2nn(-c3cncnc3)cc2c1)C1CC1 (stereo not drawn) [Compound 135, N-ethyl-N-methyl-N′-(2-(pyrimidin-5-yl)-2H-indazol-5-yl)cyclopropanesulfonimidamide]	≥ 70%	
CC(C)S(=O)(CC1CCC1)=Nc1ccc2nn(-c3cccnc3)cc2n1 (stereo not drawn) [Compound 289]	≥ 70%	
COc1nn(-c2ccc3nn(-c4ccc(C)nc4C)cc3c2)c(=O)n1C [Compound 116, 2-(2-(2,6-dimethylpyridin-3-yl)-2H-indazol-5-yl)-5-methoxy-4-methyl-2,4-dihydro-3H-1,2,4-triazol-3-one]	≥ 70%	
CC(C)CS(=O)(CC(C)C)=Nc1ccc2nn(-c3cncnc3)cc2n1 [Compound 221]	≥ 70%	
CC(C)S(C)(=O)=Nc1ccc2nn(-c3cncc(F)c3)cc2n1 (stereo not drawn) [Compound 311]	≥ 70%	
CCS(=O)(=Nc1ccc2nn(-c3ccnnc3)cc2c1)C(C)C (stereo not drawn) [Compound 48]	≥ 70%	
CS(C)(=O)=NC(=O)c1ccc2nn(-c3cncnc3)cc2c1 [Compound 228, N-(dimethyl(oxo)-λ^6-sulfaneylidene)-2-(pyrimidin-5-yl)-2H-indazole-5-carboxamide]	≥ 70%	
CCS(=O)(CC)=NC(=O)c1ccc2nn(-c3cncnc3)cc2c1 [Compound 231, N-(diethyl(oxo)-λ^6-sulfaneylidene)-2-(pyrimidin-5-yl)-2H-indazole-5-carboxamide]	≥ 70%	
CCCS(=O)(CCC)=Nc1ccc2nn(-c3cncc(F)c3)cc2n1 [Compound 310]	≥ 70%	
CC(C)S(=N)(=O)c1ccc2nn(-c3cncnc3)cc2c1 (stereo not drawn) [Compound 410, imino(isopropyl)(2-(pyrimidin-5-yl)-2H-indazol-5-yl)-λ^6-sulfanone]	≥ 70%	
N=S(=O)(CCC(F)(F)F)c1ccc2nn(-c3cccnc3)cc2c1 (stereo not drawn) [Compound 580, imino(2-(pyridin-3-yl)-2H-indazol-5-yl)(3,3,3-trifluoropropyl)-λ^6-sulfanone]	≥ 70%	
N=S(=O)(CCC1CCCCC1)c1ccc2nn(-c3cccnc3)cc2c1 (stereo not drawn) [Compound 561, (2-cyclohexylethyl)(imino)(2-(pyridin-3-yl)-2H-indazol-5-yl)-λ^6-sulfanone]	≥ 70%	
CCS(=O)(=Nc1ccc2nn(-c3cncnc3)cc2n1)C(C)C (stereo not drawn) [Compound 241]	≥ 70%	

SMILES	mortality at 300 ppm [1]	mortality at 300 ppm [2]
CCCS(C)(=O)=Nc1ccc2nn(-c3cncc(F)c3)cc2n1 (stereo not drawn) [Compound 309]	≥ 70%	
CCS(=O)(=Nc1cncc(C(F)(F)F)n1)c1ccc2nn(-c3cncc(F)c3)cc2c1 (stereo not drawn) [Compound 463]	≥ 70%	
CCS(=O)(CC)=Nc1ccc2nn(-c3ccnnc3)cc2c1 [Compound 43]	≥ 70%	
COc1nn(-c2ccc3nn(-c4cccnc4)cc3c2)c(=O)n1Cc1ccc(Cl)c(Cl)c1 [Compound 368, 4-(3,4-dichlorobenzyl)-5-methoxy-2-(2-(pyridin-3-yl)-2H-indazol-5-yl)-2,4-dihydro-3H-1,2,4-triazol-3-one]	≥ 70%	
CCCCS(=O)(CC)=Nc1ccc2nn(-c3cncnc3)cc2n1 (stereo not drawn) [Compound 220]	≥ 70%	
CN=S(=O)(c1ccc2nn(-c3cccnc3)cc2c1)C(C)C (stereo not drawn) [Compound 408]	≥ 70%	
CC(C)CCS(=O)(=Nc1ccc2nn(-c3cncnc3)cc2c1)C(C)C (stereo not drawn) [Compound 294]	≥ 70%	
CCN=S(=O)(CC1CCC1)c1ccc2nn(-c3cncnc3)cc2c1 (stereo not drawn) [Compound 466]	≥ 70%	
CCS(=O)(CC)=Nc1cc(C(F)(F)F)c2nn(-c3cccnc3)cc2c1 [Compound 296]	≥ 70%	
COc1nn(-c2ccc3nn(-c4cccnc4)cc3c2)c(=O)n1Cc1ccccc1F [Compound 122, 4-(2-fluorobenzyl)-5-methoxy-2-(2-(pyridin-3-yl)-2H-indazol-5-yl)-2,4-dihydro-3H-1,2,4-triazol-3-one]	≥ 70%	
CC(C)S(=O)(=NC(=O)C(F)F)c1ccc2nn(-c3cncnc3)cc2c1 (stereo not drawn) [Compound 421]	≥ 70%	
CC(C)S(C)(=O)=Nc1ccc2nn(-c3cncnc3)cc2n1 (stereo not drawn) [Compound 213]	≥ 70%	
CC(C)(C)S(C)(=O)=Nc1ccc2nn(-c3cncc(F)c3)cc2n1 (stereo not drawn) [Compound 313]	≥ 70%	
CCS(C)(=O)=Nc1ccc2nn(-c3cncc(F)c3)cc2n1 (stereo not drawn) [Compound 307]	≥ 70%	
CC(C)(C)S(C)(=O)=Nc1ccc2nn(-c3cncc(F)c3)cc2c1 (stereo not drawn) [Compound 293]	≥ 70%	
CCS(=O)(CC)=Nc1ccc2nn(-c3cncnc3)cc2n1 [Compound 219]	≥ 70%	
CC(=O)N=S(=O)(c1ccc2nn(-c3cncnc3)cc2c1)C(C)C (stereo not drawn) [Compound 418]	≥ 70%	
O=S(CCC(F)(F)F)(=Nc1ccc2nn(-c3ccnnc3)cc2c1)c1ccccc1 (stereo not drawn) [Compound 68]	≥ 70%	
CCS(=O)(CC)=Nc1ccc2nn(-c3cncc(F)c3)cc2n1 [Compound 308]	≥ 70%	
